Reference: paper PMC5150537 (Nature Communications, 2016)

Target: T1, TmPPase (Thermotoga maritima, UniProt Q9S5X0)
T1 construct: gene hppA; N-terminally His6-tagged, plasmid pRS1024, expressed in Saccharomyces cerevisiae BJ1991, OGNPG-solubilised, homodimer
T1 sequence (Q9S5X0 1-726 limits assumed): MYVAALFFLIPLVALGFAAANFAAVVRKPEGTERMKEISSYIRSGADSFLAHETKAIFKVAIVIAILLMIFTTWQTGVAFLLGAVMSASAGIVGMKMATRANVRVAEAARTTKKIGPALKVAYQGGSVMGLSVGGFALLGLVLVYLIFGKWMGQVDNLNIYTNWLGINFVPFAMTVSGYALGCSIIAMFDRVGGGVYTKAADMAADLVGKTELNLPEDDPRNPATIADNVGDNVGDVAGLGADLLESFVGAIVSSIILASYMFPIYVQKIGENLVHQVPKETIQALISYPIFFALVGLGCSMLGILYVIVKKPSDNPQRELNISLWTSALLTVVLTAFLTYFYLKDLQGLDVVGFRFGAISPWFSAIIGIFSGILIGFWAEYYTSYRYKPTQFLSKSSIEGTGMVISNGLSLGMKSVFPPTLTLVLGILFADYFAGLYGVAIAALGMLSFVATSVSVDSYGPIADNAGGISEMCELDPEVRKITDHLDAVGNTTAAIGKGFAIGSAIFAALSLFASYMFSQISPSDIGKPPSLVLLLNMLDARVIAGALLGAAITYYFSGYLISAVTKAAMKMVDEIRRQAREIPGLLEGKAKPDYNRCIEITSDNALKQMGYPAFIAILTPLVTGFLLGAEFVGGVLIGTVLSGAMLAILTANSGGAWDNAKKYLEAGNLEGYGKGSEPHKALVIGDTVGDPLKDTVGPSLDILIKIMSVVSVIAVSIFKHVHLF
Experiment: X-ray crystallography, […] Å
Format: binding
Settings: active site, as Mg5IDP complex; Na+ bound at ion gate; pH 8.5 well solution; non-hydrolysable substrate analogue

O=P(O)(O)NP(=O)(O)O [IDP, imidodiphosphate] was tested, and the “X-ray crystallography, 3.5 Å” value was “In TmPPase:IDP, an Mg5IDP-complex was fit into the positive Fo–Fc density in the hydrolytic centre”.
